The procedure of data set [1]:
(§1) Either pig skin or human cadaver skin was used. It was placed in the cell dermal side down.
(§2) The receptor solution completely filled the receptor compartment.
(§3) All skin was stored frozen.
(§4) Each experiment consisted of three phases totaling 66 hours. […]
(§5) The injection volume was 10 »l.

The source holds these as a separate data set.
A short description of data set [2]: Iontophoretic drug delivery through skin in vertical flow-through diffusion cell, HPLC of receptor solution (human skin). The settings on record: oxymorphone, 0 mg/ml oleic acid (control). The class given is in vitro ADME. How it is done: as §1, §2, §3, §4, §5
Tests with enhancer may be compared to the control delivery rate with no oleic acid and using human skin. Tests summarized in Table 4 were done using oxymorphone in the donor compartment.

The mark [3] stands for this setting: delivery of HM-HCl 0.1M, enhancer 100 mg/ml (10.0%), E/W 60/40, current 1 mA.

The structures appear in SMILES notation. Several values for one entry are separate records, joined by “and”; a condition that tells them apart may be missing. Identical values can stand only once. Counter-ions that a name gives are not always drawn. Like-named read-outs stand apart in the source and are kept apart here.

For the compound `CCCCCCCCCC(=O)O` [Capric acid, decanoic acid], the “Enhancement Factor” value in data set [1] (setting [3]) came out at 3.9.

Turning to `CCCCCCCC(=O)O` [Caprylic acid, octanoic acid], the “Enhancement Factor” value in data set [1] (delivery of HM-HCl 0.1M, enhancer 100 mg/ml (10.0%), E/W 48/52, current 1 mA) is recorded as 3.6.

For `CCCCCCCCCCCC(=O)O` [Lauric acid, dodecanoic acid], the “Steady State Delivery Rate ± sd” value in data set [1] amounted to 4838 ± 766 µg/h. The “Enhancement Factor” value in data set [1] (setting [3]) is on record as 4.0.

On to `CCCCCCCC/C=C\CCCCCCCC(=O)O` [Oleic acid, cis-9-octadecenoic acid], for which the “steady state (phase II) delivery rate” value (Scheme B: 1% oleic acid + drug in passive phase I, phase II 0.1 M HM.HCl in DI W without enhancer, current on, pig skin) is recorded as 2163 ± 354 »g/hr. Further, the “delivery by the end of phase I” value (Scheme B: passive phase I (18 h, current off), 1% oleic acid + 0.1 M HM.HCl in E/W 67/33, pig skin) is recorded as “approximately 1800 »g/hr”. Also, the “Enhancement Factor” value (delivery of HM-HCl 0.1M, enhancer 10 mg/ml (1.0%), E/W 67/33, current 1 mA) is 4.3; the “Enhancement Factor” value (delivery of Oxy-HCl 0.1M, enhancer 5 mg/ml (0.5%), E/W 67/33, current 1 mA, ratio of steady state rates with and without enhancer) worked out at 4.7; the “Enhancement Factor” value (delivery of oxymorphone-HCl, oleic acid 0.25 mg/ml (0.025%), E/W 48/52, 1 mA, pig skin) worked out at 0; the “Enhancement Factor” value (delivery of oxymorphone-HCl, oleic acid 0.50 mg/ml (0.050%), E/W 48/52, 1 mA, pig skin) worked out at 1.3; the “Enhancement Factor” value (delivery of oxymorphone-HCl, oleic acid 1.0 mg/ml (0.10%), E/W 52/48, 1 mA, pig skin) worked out at 1.9; the “Enhancement Factor” value (delivery of oxymorphone-HCl, oleic acid 2.0 mg/ml (0.20%), E/W 56/44, 1 mA, pig skin) is recorded as 3.2. Moreover, the “Enhancement Factor” value (delivery of oxymorphone-HCl, oleic acid 2.5 mg/ml (0.25%), E/W 56/44, 1 mA, pig skin, two identical tests on different days) is 4.2 and 4.5; the “Enhancement Factor” value (delivery of oxymorphone-HCl, oleic acid 5.0 mg/ml (0.50%), E/W 67/33, 1 mA, pig skin) worked out at 4.7; the “Enhancement Factor” value in data set [1] (oleic acid 50 mg/ml (5%), solvent PG/E/W (30/45/20)) turned out to be 4.3; the “Enhancement Factor” value in data set [1] (oleic acid 50 mg/ml (5%), solvent PG/E/W (65/20/10)) turned out to be 2.5.

As to `CN1CC[C@]23c4c5ccc(O)c4O[C@H]2C(=O)CC[C@@]3(O)[C@H]1C5` [Oxy-HCl, oxymorphone hydrochloride], the “Steady State Delivery Rate ± sd” value was 27 ± 25 µg/h in data set [2] (current 0 mA); 228 ± 55 µg/h in data set [2] (current 0.25 mA); 542 ± 62 µg/h in data set [2] (current 0.50 mA); 910 ± 117 µg/h in data set [2] (current 0.75 mA); 1024 ± 276 µg/h in data set [2] (current 1.0 mA); 1202 ± 133 µg/h in data set [1] (Oxy-HCl 0.1M, no enhancer, E/W 67/33, current 1 mA). Besides, the “typical iontophoretic steady state delivery rate” value in data set [1] (current of 1 mA, without the addition of a fatty acid, human skin or pig skin) is on record as “about 1200 »g/hr”.

(Values after EP0525063B1, “Use of specific fatty acids in the manufacture of a medicament for their Iontophoresis delivery” (priority 1990, dated 1991).)
